Source: PubChem BioAssay AID248 (DTP/NCI, 2004)
Inconclusive results and toxic doses are left out. Rule as the data show it: active = T/C of 150% or more; inactive = T/C below 125%.

Tested on: L1210 leukemia ip in BDF1 mice, survival T/C
Experiment: NCI In Vivo Anticancer Drug Screen. Data for tumor model L1210 Leukemia (intraperitoneal) in B6D2F1 (BDF1) mice
Settings: endpoint: mean survival time, schedule: Q01DX009 (ip), vehicle: water, higher = longer survival
In short: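 Ratio derived from survival: compound-dosed mice over vehicle-dosed mice, all bearing a transplantable tumor.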

Measured: T/C

c1ccc2c(c1)Cc1nc3ccccc3nc1-2
inactive: dose: 25.0 mg/kg/injection 93 % of control | dose: 50.0 mg/kg/injection 91 % of control | dose: 100.0 mg/kg/injection 101 % of control | dose: 200.0 mg/kg/injection 93 % of control | dose: 400.0 mg/kg/injection 96 % of control
